Assay results: the supplement of paper PMC13380429

Experiments:
[1] = tested on: A549-ACE2 infected with SARS-CoV-2; assay: morphology score (similarity to uninfected cells); higher = more like uninfected cells; conditions: 24 h
[2] = tested on: A549-ACE2 infected with SARS-CoV-2; assay: cell count relative to DMSO; higher = less toxic; conditions: 24 h
[3] = tested on: HepG2; assay: relative viability EC50 (midpoint between 100% and the lowest measured viability); higher = less toxic; conditions: 72 h
[4] = tested on: Vero E6; assay: as above; conditions: 72 h
[5] = tested on: Calu-3; assay: as above; conditions: 72 h
[6] = tested on: Caco-2; assay: as above; conditions: 72 h
[7] = tested on: U2OS; assay: as above; conditions: 72 h
[8] = tested on: HepG2; assay: drug sensitivity score (DSS) for viability; higher = more toxic; extreme values may be limits of the assay; conditions: 72 h
[9] = tested on: Vero E6; assay: as above; conditions: 72 h
[10] = tested on: Calu-3; assay: as above; conditions: 72 h
[11] = tested on: Caco-2; assay: as above; conditions: 72 h
[12] = tested on: U2OS; assay: as above; conditions: 72 h
[13] = tested on: A549-ACE2; assay: drug-induced phospholipidosis relative to tamoxifen; higher = more phospholipidosis
[14] = tested on: A549-ACE2; assay: phospholipidosis EC50; higher = less potent phospholipidosis inducer
[15] = tested on: A549-ACE2 infected with SARS-CoV-2; assay: SARS-CoV-2 infection rate relative to DMSO; higher = more infection; conditions: 24 h
[16] = tested on: HepG2; assay: cell viability relative to DMSO; higher = less toxic; conditions: 72 h
[17] = tested on: Vero E6; assay: as above; conditions: 72 h
[18] = tested on: Calu-3; assay: as above; conditions: 72 h
[19] = tested on: Caco-2; assay: as above; conditions: 72 h
[20] = tested on: U2OS; assay: as above; conditions: 72 h

FC(F)(F)c1cc(CO[C@H]2CCCN[C@H]2c2ccccc2)cc(C(F)(F)F)c1
Conditions	SARS-CoV-2 infection rate [%]	cell count [%]	cell viability [%]	morphology score	phospholipidosis EC50 [µM]
[1], 0.3 µM	–	–	–	0.12	–
[1], 3 µM	–	–	–	0.72	–
[1], 10 µM	–	–	–	0.92	–
[1], 30 µM	–	–	–	0.01	–
[2], 0.3 µM	–	100	–	–	–
[2], 3 µM	–	113	–	–	–
[2], 10 µM	–	121	–	–	–
[2], 30 µM	–	69	–	–	–
[14], 24 h	–	–	–	–	2.17
[14], 48 h	–	–	–	–	2.92
[14], 72 h	–	–	–	–	3.8
[15], 0.3 µM	95	–	–	–	–
[15], 3 µM	57	–	–	–	–
[15], 10 µM	16	–	–	–	–
[15], 30 µM	42	–	–	–	–
[16], 1 nM	–	–	104	–	–
[16], 10 nM	–	–	97.9	–	–
[16], 100 nM	–	–	97.8	–	–
[16], 1000 nM	–	–	107	–	–
[16], 10000 nM	–	–	88.4	–	–
[17], 1 nM	–	–	96.7	–	–
[17], 10 nM	–	–	102	–	–
[17], 100 nM	–	–	102	–	–
[17], 1000 nM	–	–	99.1	–	–
[17], 10000 nM	–	–	89.4	–	–
[18], 1 nM	–	–	97.4	–	–
[18], 10 nM	–	–	97.6	–	–
[18], 100 nM	–	–	102	–	–
[18], 1000 nM	–	–	101	–	–
[18], 10000 nM	–	–	18.1	–	–
[19], 1 nM	–	–	108	–	–
[19], 10 nM	–	–	106	–	–
[19], 100 nM	–	–	91.1	–	–
[19], 1000 nM	–	–	87.2	–	–
[19], 10000 nM	–	–	83.6	–	–
[20], 1 nM	–	–	104	–	–
[20], 10 nM	–	–	101	–	–
[20], 100 nM	–	–	105	–	–
[20], 1000 nM	–	–	96.2	–	–
[20], 10000 nM	–	–	92.1	–	–

Conditions	drug sensitivity score	relative viability EC50 [µM]
[3]	–	> 10
[4]	–	> 10
[5]	–	3.27
[6]	–	> 10
[7]	–	> 10
[8]	0	–
[9]	0	–
[10]	4.4	–
[11]	2.5	–
[12]	0	–

drug-induced phospholipidosis [%], [13]
Conditions	0.3 µM	0.833333 µM	3.33333 µM	6.66667 µM	10 µM
24 h	3.76	11.4	79.2	99.1	104
48 h	4.92	7.68	61.5	89.2	97.2
72 h	5.63	5.43	40.2	85	93

NC(=O)c1cnc(N[C@@H]2CCCC[C@@H]2N)nc1Nc1cccc(-n2nccn2)c1
Conditions	SARS-CoV-2 infection rate [%]	cell count [%]	cell viability [%]	morphology score	phospholipidosis EC50 [µM]
[1], 0.3 µM	–	–	–	-0.18	–
[1], 3 µM	–	–	–	0.74	–
[1], 10 µM	–	–	–	0.43	–
[1], 30 µM	–	–	–	0.3	–
[2], 0.3 µM	–	94	–	–	–
[2], 3 µM	–	101	–	–	–
[2], 10 µM	–	50	–	–	–
[2], 30 µM	–	1	–	–	–
[14], 24 h	–	–	–	–	6.68
[14], 48 h	–	–	–	–	4.26
[15], 0.3 µM	104	–	–	–	–
[15], 3 µM	32	–	–	–	–
[15], 10 µM	72	–	–	–	–
[15], 30 µM	121	–	–	–	–
[16], 1 nM	–	–	101	–	–
[16], 10 nM	–	–	101	–	–
[16], 100 nM	–	–	99.1	–	–
[16], 1000 nM	–	–	95	–	–
[16], 10000 nM	–	–	31.7	–	–
[17], 1 nM	–	–	98.9	–	–
[17], 10 nM	–	–	100	–	–
[17], 100 nM	–	–	91.1	–	–
[17], 1000 nM	–	–	98.4	–	–
[17], 10000 nM	–	–	81.6	–	–
[18], 1 nM	–	–	97.3	–	–
[18], 10 nM	–	–	94.5	–	–
[18], 100 nM	–	–	101	–	–
[18], 1000 nM	–	–	69.6	–	–
[18], 10000 nM	–	–	45.2	–	–
[19], 1 nM	–	–	94.6	–	–
[19], 10 nM	–	–	92.9	–	–
[19], 100 nM	–	–	91.5	–	–
[19], 1000 nM	–	–	93	–	–
[19], 10000 nM	–	–	44.7	–	–
[20], 1 nM	–	–	99.7	–	–
[20], 10 nM	–	–	96.8	–	–
[20], 100 nM	–	–	106	–	–
[20], 1000 nM	–	–	93.9	–	–
[20], 10000 nM	–	–	46.1	–	–

Conditions	drug sensitivity score	relative viability EC50 [µM]
[3]	–	2.57
[4]	–	> 10
[5]	–	0.917
[6]	–	2.13
[7]	–	2.24
[8]	4.5	–
[9]	0.7	–
[10]	6.7	–
[11]	4.2	–
[12]	3.9	–

drug-induced phospholipidosis [%], [13]
Conditions	0.3 µM	0.833333 µM	3.33333 µM	6.66667 µM	10 µM
24 h	1.48	0.83	27.1	71.6	99.3
48 h	4.57	2.08	16.9	73.9	–
72 h	3.49	-1.55	12.3	69.8	–
